One experiment concerns the target T1, hMC1-R (Homo sapiens, UniProt Q01726).
T1 construct: expressed in transfected cells; host or cells: HEK-293
In words: Competitive inhibition binding assay using [I125]-NDP-α-MSH, HEK-293 membranes, recombinant hMC1-R. To be noted: human recombinant MC1-R; for inhibition at 1 µM: 1 μM compound. Here is the method: (§1) A competitive inhibition binding assay was performed using membrane homogenates prepared from HEK-293 cells that express recombinant hMC4-R, hMC3-R, or hMC5-R, and from B-16 mouse melanoma cells (containing endogenous MC1-R). In some instances, HEK-293 cells that express recombinant hMC1-R were employed. In the examples that follow, all MC3-R, MC4-R and MC5-R values are for human recombinant receptors. MC1-R values are for B-16 mouse melanoma cells, unless the heading is “hMC1-R”, in which case the value is for human recombinant MC1-R. Assays were performed in 96 well GF/B Millipore multiscreen filtration plates (MAFB NOB10) pre-coated with 0.5% bovine serum albumin (Fraction V). […] After incubation for 60 minutes at 37° C., the assay mixture was filtered and the membranes washed three times with ice-cold buffer. Filters were dried and counted in a gamma counter for bound radioactivity. […] Maximal specific binding (100%) was defined as the difference in radioactivity (cpm) bound to cell membranes in the absence and presence of 1 μM NDP-α-MSH. […] Each assay was conducted in triplicate and the actual mean values are described, with results less than 0% reported as 0%. Ki values for test compounds were determined using Graph-Pad Prism® curve-fitting software.

A further experiment deals with T2, MC5-R (Homo sapiens, UniProt P33032).
T2 construct: expressed in transfected cells; host or cells: HEK-293
T2 sequence (P33032 whole entry): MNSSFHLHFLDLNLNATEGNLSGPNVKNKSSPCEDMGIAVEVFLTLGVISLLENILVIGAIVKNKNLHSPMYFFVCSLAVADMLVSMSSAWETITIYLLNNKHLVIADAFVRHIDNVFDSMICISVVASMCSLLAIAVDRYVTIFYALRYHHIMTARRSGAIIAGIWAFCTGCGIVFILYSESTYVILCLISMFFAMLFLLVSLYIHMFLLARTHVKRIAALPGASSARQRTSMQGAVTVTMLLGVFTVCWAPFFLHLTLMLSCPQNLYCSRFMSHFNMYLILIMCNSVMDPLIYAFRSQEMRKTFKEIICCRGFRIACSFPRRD
The experiment is described as follows: Competitive inhibition binding assay using [I125]-NDP-α-MSH, HEK-293 membranes, recombinant hMC5-R. To be noted: for inhibition at 1 µM: 1 μM compound. Here is the method: as §1

The target of the next experiment is MC4-R (Homo sapiens, UniProt P32245). The experiment is described as follows: Competitive inhibition binding assay using [I125]-NDP-α-MSH, HEK-293 membranes, recombinant hMC4-R. Further details: expressed in transfected cells; host or cells: HEK-293. To be noted: for inhibition at 1 µM: 1 μM compound. Here is the method: as §1
Chain of MC4-R (P32245 whole entry): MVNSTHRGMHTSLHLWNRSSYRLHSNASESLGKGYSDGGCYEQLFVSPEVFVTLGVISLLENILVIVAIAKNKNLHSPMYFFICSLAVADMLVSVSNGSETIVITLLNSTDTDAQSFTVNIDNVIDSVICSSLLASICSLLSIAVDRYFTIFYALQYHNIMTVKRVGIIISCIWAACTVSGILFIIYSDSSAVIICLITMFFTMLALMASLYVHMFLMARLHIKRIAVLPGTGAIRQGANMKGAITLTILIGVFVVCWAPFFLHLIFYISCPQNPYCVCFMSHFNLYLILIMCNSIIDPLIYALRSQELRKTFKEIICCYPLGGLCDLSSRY
The target of the next experiment is T3, MC3-R (Homo sapiens, UniProt P41968).
T3 construct: expressed in transfected cells; host or cells: HEK-293
T3 sequence (P41968 whole entry): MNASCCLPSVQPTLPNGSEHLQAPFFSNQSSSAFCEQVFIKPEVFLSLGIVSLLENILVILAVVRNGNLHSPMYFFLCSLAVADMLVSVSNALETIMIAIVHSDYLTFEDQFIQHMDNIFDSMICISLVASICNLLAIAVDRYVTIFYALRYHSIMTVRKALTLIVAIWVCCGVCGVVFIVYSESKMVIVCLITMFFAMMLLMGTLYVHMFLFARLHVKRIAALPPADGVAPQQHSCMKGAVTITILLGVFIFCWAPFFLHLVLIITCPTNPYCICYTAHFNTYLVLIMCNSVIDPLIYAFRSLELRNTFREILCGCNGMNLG
In words: Competitive inhibition binding assay using [I125]-NDP-α-MSH, HEK-293 membranes, recombinant hMC3-R. The following applies: for inhibition at 1 µM: 1 μM compound. Here is the method: as §1

T1 sequence (Q01726 whole entry): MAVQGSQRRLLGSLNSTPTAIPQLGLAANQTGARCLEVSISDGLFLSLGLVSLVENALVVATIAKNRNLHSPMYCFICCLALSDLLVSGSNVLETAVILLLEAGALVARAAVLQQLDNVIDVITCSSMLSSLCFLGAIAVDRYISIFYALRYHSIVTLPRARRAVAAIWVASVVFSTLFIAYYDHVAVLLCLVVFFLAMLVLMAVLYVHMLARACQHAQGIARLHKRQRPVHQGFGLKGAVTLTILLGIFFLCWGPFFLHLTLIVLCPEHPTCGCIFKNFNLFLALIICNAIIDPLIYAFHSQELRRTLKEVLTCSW

As to `CC(C)C[C@@H]1CN(C[C@@H](Cc2ccc(Cl)cc2Cl)N(C)C)[C@@H](CCCN(C)CCN)CN1C(=O)Cc1ccc2ccccc2c1` [Example 32, 1-{(2R,5S)-5-{3-[(2-Amino-ethyl)-methyl-amino]-propyl}-4-[(R)-3-(2,4-dichloro-phenyl)-2-dimethylamino-propyl]-2-isobutyl-piperazin-1-yl}-2-naphthalen-2-yl-ethanone], the inhibition at 1 µM at hMC1-R worked out at 25%; at MC5-R it was 65%; at MC4-R, 91%; on MC3-R it was 43%.
Take `C[C@@H]1CN(C(=O)[C@H](N)Cc2ccc(Cl)c(Cl)c2)[C@@H](CCCNCCN)CN1C(=O)[C@H](N)Cc1ccc(Cl)c(Cl)c1` [Example 28, (R)-2-Amino-1-{(2R,5S)-4-[(R)-2-amino-3-(3,4-dichloro-phenyl)-propionyl]-5-[3-(2-amino-ethylamino)-propyl]-2-methyl-piperazin-1-yl}-3-(3,4-dichloro-phenyl)-propan-1-one]: the inhibition at 1 µM stood at 77% on hMC1-R, 84% on MC5-R, 96% at MC4-R and 94% at MC3-R. For the same compound, the Ki at MC4-R is 19 nM.
Take `CC(C)C[C@@H]1CN(C(=O)[C@H](N)Cc2ccc(Cl)cc2Cl)[C@@H](CCCCNCCN)CN1C(=O)[C@H](N)Cc1ccc(Cl)cc1Cl` [Example 19, (R)-2-Amino-1-{(2R,5S)-4-[(R)-2-amino-3-(2,4-dichloro-phenyl)-propionyl]-5-[4-(2-amino-ethylamino)-butyl]-2-isobutyl-piperazin-1-yl}-3-(2,4-dichloro-phenyl)-propan-1-one]: the inhibition at 1 µM on hMC1-R amounted to 36%; on MC5-R, 47%; on MC4-R, 97%; at MC3-R, 59%. Besides, the inhibitory constant (Ki) at hMC1-R was 754 nM; at MC5-R, 296 nM; on MC4-R it was 36 nM; at MC3-R, 327 nM.
On to `Cc1ccc(C[C@@H](N)C(=O)N2C[C@H](CCCNCCN)N(C(=O)[C@H](N)Cc3ccc(C)cc3C)C[C@H]2CC2CCCCC2)c(C)c1` [Example 14, (R)-2-Amino-1-{(2R,5S)-4-[(R)-2-amino-3-(2,4-dimethyl-phenyl)-propionyl]-5-[3-(2-amino-ethylamino)-propyl]-2-cyclohexylmethyl-piperazin-1-yl}-3-(2,4-dimethyl-phenyl)-propan-1-one], for which the inhibition at 1 µM at hMC1-R is 35%; at MC5-R, 43%; on MC4-R, 83%; at MC3-R, 22%. Besides, the Ki on MC4-R was found to be 81 nM.
Taken in the same sequence, the figures for `Cc1ccc(C[C@@H](N)C(=O)N2C[C@H](CCCNCCN)N(C(=O)[C@H](N)Cc3ccc(C)cc3C)C[C@H]2CC(C)C)c(C)c1` [Example 17, (R)-2-Amino-1-{(2S,5R)-4-[(R)-2-amino-3-(2,4-dimethyl-phenyl)-propionyl]-2-[3-(2-amino-ethylamino)-propyl]-5-isobutyl-piperazin-1-yl}-3-(2,4-dimethyl-phenyl)-propan-1-one] were 22%, 38%, 83%, 14% and 60 nM.
Take `Cc1ccc(C[C@@H](N)CN2C[C@@H](C)N(C(=O)Cc3ccc4ccccc4c3)C[C@@H]2Cc2ccc(NCCN)cc2)c(C)c1` [Example 11, 1-{(2R,5S)-4-[(R)-2-Amino-3-(2,4-dimethyl-phenyl)-propyl]-5-[4-(2-amino-ethylamino)-benzyl]-2-methyl-piperazin-1-yl}-2-naphthalen-2-yl-ethanone]: the inhibition at 1 µM was found to be 3% on hMC1-R, 36% at MC5-R, 39% on MC4-R and 29% at MC3-R.
